# Reference: patent publication US9605004B2, “Chemical compounds” (SYNGENTA LIMITED, priority 2013, dated 2017)
# What was measured:
# [1] = system: a variety of test species; test: Pre-emergence herbicidal activity (Example 8a, Table 2); type: in vivo; parameters: key: 0 = no damage to plant, 5 = total damage to plant; settings: application pre-emergence, rate 1000 g/ha, evaluated after 13 days
# In short: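 Seeds sown in standard soil in pots, held one day in glasshouse (24/16 °C day/night, 14 h light, 65% humidity), then sprayed with aqueous solution of compound formulated in acetone/water 50:50 with 0.5% Tween 20. Grown on under same conditions, watered twice daily; damage scored after 13 days (0 = none, 5 = total).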
# [2] = system: a variety of test species; test: Post-emergence herbicidal activity (Example 8b, Table 3); type: in vivo; settings: application post-emergence, rate 1000 g/ha, evaluated after 13 days, scale 0-5; for Herbicidal damage score, ABUTH: Abutilon theophrasti; for Herbicidal damage score, ALOMY: Alopecurus myosuroides; for Herbicidal damage score, AMARE: Amaranthus retroflexus; for Herbicidal damage score, ECHCG: Echinochloa crus-galli; for Herbicidal damage score, SETFA: Setaria faberi; for Herbicidal damage score, ZEAMX: Zea mays
# In short: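 Damage rating 0 (none) to 5 (total), assessed 13 days after spraying. Plants received the compound in acetone/water 50:50 with 0.5% Tween 20 at 8 days post-sowing, then were kept at 24/16 °C, 14 h photoperiod, 65% RH.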
SMILES,"Pre-emergence herbicidal activity, damage score ABUTH [1]","Pre-emergence herbicidal activity, damage score ALOMY [1]","Pre-emergence herbicidal activity, damage score AMARE [1]","Pre-emergence herbicidal activity, damage score ECHCG [1]","Pre-emergence herbicidal activity, damage score SETFA [1]","Pre-emergence herbicidal activity, damage score ZEAMX [1]","Herbicidal damage score, ABUTH [2]","Herbicidal damage score, ALOMY [2]","Herbicidal damage score, AMARE [2]","Herbicidal damage score, ECHCG [2]","Herbicidal damage score, SETFA [2]","Herbicidal damage score, ZEAMX [2]"
C=C(C)c1cc(N2C(=O)C(Cl)=C(C)C2O)nn1C (stereo not drawn) [Compound B45],5,4,5,5,5,3,5,5,5,5,5,4
CC(C)=C(C)c1cc(N2C(=O)C(Cl)=C(C)C2O)nn1C (stereo not drawn) [Compound B48],4,4,5,4,3,1,5,4,5,5,4,1
CCO/C=C\c1cc(N2C(=O)C(Cl)=C(C)C2O)nn1C (stereo not drawn) [Compound B49],0,0,0,0,0,0,2,0,4,0,3,1
CCn1nc(N2C(=O)C(Cl)=C(C)C2O)cc1C(F)(F)F (stereo not drawn) [Compound C1],5,4,5,5,4,4,5,5,5,5,4,3
CCn1nc(N2C(=O)C(Cl)=C(C)C2O)cc1C(C)(C)C (stereo not drawn) [Compound C2],4,4,5,4,5,2,5,5,4,5,5,3
CCn1nc(N2C(=O)C(Cl)=C(C)C2O)c2c1C(C)(C)CC2 (stereo not drawn) [Compound C3],5,4,5,5,4,2,5,4,5,5,5,4
CC1=C(Cl)C(=O)N(c2cc(C(F)(F)F)n(C(C)C)n2)C1O (stereo not drawn) [Compound C4],4,3,4,4,4,3,4,4,4,5,4,2
CC1=C(Cl)C(=O)N(c2cc(C(F)(F)F)n(CC(F)(F)F)n2)C1O (stereo not drawn) [Compound C5],2,3,3,4,4,2,4,5,5,5,5,3
CCn1nc(N2C(=O)C(Cl)=C(C)C2O)cc1C(F)(F)F (stereo not drawn) [Compound C6],5,4,5,5,4,4,5,5,5,5,4,3
CC1=C(Cl)C(=O)N(c2cc(C(F)(F)F)n(C(C)C)n2)C1O (stereo not drawn) [Compound C7],4,3,4,4,4,3,4,4,4,5,4,2
CCn1nc(N2C(=O)C(Cl)=C(C)C2O)cc1C(C)(C)C (stereo not drawn) [Compound C8],4,4,5,4,5,2,5,5,4,5,5,3
CC1=C(Cl)C(=O)N(c2cc(C(F)(F)F)n(CC(F)(F)F)n2)C1O (stereo not drawn) [Compound C9],2,3,3,4,4,2,4,5,5,5,5,3
CC1=C(Cl)C(=O)N(c2cc(C#N)n(CC(F)(F)F)n2)C1O (stereo not drawn) [Compound C11],5,0,2,1,1,1,5,2,1,4,3,2
CC1=C(Cl)C(=O)N(c2cc(C)n(C(F)F)n2)C1O (stereo not drawn) [Compound C12],5,3,5,4,3,2,5,4,5,5,5,3
CC1=C(Cl)C(=O)N(c2cc(C)n(C(F)(F)F)n2)C1O (stereo not drawn) [Compound C13],3,2,2,2,2,0,1,1,1,1,2,1
